Measured values taken from patent publication US9353101B2 (Merck Sharp & Dohme Corp., priority 2012, dated 2016).

Target: CETP (Homo sapiens (Human), UniProt P11597)
Assay: In vitro radioactive assay of CETP-catalyzed CE and TG transfer (RTA assay), 95% human serum
Format: biochemical
Conditions: RTA assay in 95% human serum; read-out: RTA IC50 (CETP Inhibition)
Experimental: In Vitro Radioactive Assays of CETP-Catalyzed CE and TG Transfer (RTA Assay)
Reagents and sources are: [3H] cholesteryl oleate (GE #TRK.886), [3H] Triolein (Perkin-Elmer NET-431), Butylated hydroxyl toluene (Aldrich, #D4740-4), DOPC (Sigma, # P6354), Sodium Bromide (Fisher scientific #S255-500), PEG 8000 (Fisher, #BP233-1), and human HDL (Intracel Corp #RP-036).
An in vitro assay for determining IC50's to identify compounds that inhibit CETP transfer activity is performed based on a modification of a published method (Morton and Zilversmit, (1981) A plasma inhibitor of triglyceride and cholesteryl ester transfer activities, J. Biol. Chem. 256(23), 11992-11995). The ability of inhibitors to alter CETP activity is performed using two different assays: one using recombinant CETP and one using an endogenous plasma source of CETP. Both assays measure the transfer of [3H] cholesteryl oleate or [3H] triolein from exogenous LDL to HDL.
Radiolabeled donor particles are generated by first combining 100 μl of 200 μM butylated hydroxyl toluene in CHCl3, 216 μL of 21.57 mM DOPC in EtOH, and either 500 μCi [3H]-triolein (Perkin Elmer #NET-431) or 500 μCi [3H]-cholesteryl oleate (GE #TRK886) in a glass tube. Reagents are mixed, dried under nitrogen, and then resuspended in 2 mL of 50 mM Tris, 27 μM EDTA at pH 7.4. After a brief vortex, the solution is sonicated until clear and mixed with 20 mL of fresh human serum. The mixture is incubated overnight at 37° C. The [3H] labeled LDL substrate is separated at 1.063 g/ml density by sequential ultracentrifugal flotation in NaBr according to the method by (Havel, Eder et al. 1955; Chapman, Goldstein et al. 1981). Once isolated the particles are dialyzed 3× in CETP buffer (50 mM Tris, pH 7.4, 100 mM NaCl, 1 mM EDTA). Human HDL is purchased from Intracel and used as the acceptor particles.
Transfer assays are performed in a 96 or 384-well v-bottom polypropylene plate. For the RTA using recombinant CETP (2% RTA), an assay cocktail is prepared with the final concentrations 128 μg/mL HDL, 20 nM rCETP, 2% human serum, and 1×CETP buffer. 1 μL of each test compound diluted in DMSO is added to 47 μL of assay cocktail per well and incubated at 37° C. for 1 hour. To initiate the transfer reaction, 2 μL radiolabeled LDL is added. After an additional 60 min of incubation at 37° C., the transfer action is terminated by precipitation of LDL with an equal volume of 20% W/V PEG 8000. The plates are centrifuged at 2000 rpm for 30 minutes at 4° C. A 40 μL aliquot of the HDL-containing supernatant is transferred to a Packard Optiplate™ with 200 μL of MicroScint™ 20. After mixing, plates are counted by liquid scintillation. Counts present in the supernatant for blanks (wells containing only HDL acceptor, CETP buffer and DMSO) are subtracted from those containing test compounds and used to correct for non-specific transfer.
For the transfer assay using endogenous CETP from serum (95% RTA), the same procedure is used except that human serum is added such that a final concentration of serum of 95% of the total assay volume is achieved, yielding a concentration of approximately 15 nM endogenous CETP in the assay. This is then combined with HDL and CETP buffer and the reaction proceeds as above and is terminated as described.
Comparison of the counts of samples with inhibitors to an uninhibited (DMSO only) positive control yield a percent inhibition. A plot of percent inhibition vs. log of inhibitor concentration, fit to a Sigmoidal 4 parameter equation is used to calculate IC50.
Starting materials are commercially available or are made using known procedures or as shown below. The examples may be synthesized using the general schemes provided below. The data reported for the examples below were obtained using the RTA assay in 95% human serum.

Sequence of CETP (P11597 18-493 limits assumed): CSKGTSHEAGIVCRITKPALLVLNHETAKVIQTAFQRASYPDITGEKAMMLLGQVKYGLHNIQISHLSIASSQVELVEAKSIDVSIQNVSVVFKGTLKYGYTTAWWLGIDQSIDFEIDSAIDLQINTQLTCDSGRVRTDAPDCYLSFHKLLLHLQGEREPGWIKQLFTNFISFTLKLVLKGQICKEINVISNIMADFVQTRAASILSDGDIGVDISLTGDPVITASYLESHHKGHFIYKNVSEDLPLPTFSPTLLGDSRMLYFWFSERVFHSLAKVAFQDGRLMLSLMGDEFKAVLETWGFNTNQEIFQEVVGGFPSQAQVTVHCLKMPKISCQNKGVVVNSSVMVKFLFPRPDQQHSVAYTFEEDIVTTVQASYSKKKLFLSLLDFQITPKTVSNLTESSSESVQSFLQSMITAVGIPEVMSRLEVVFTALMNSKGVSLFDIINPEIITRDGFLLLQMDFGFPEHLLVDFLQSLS

Row | Compound | IC50
1 | COc1ncc(-c2c(C)cc(C(=O)O)cc2C)cc1-c1cnc(N2CCOCC2)nc1CN1C(=O)O[C@H](c2cc(C(F)(F)F)cc(C(F)(F)F)c2)[C@@H]1C [Example 34, 4-{5-[4-({(4S,5R)-5-[3,5-Bis(trifluoromethyl)phenyl]-4-methyl-2-oxo-1,3-oxazolidin-3-yl}methyl)-2-(morpholin-4-yl)pyrimidin-5-yl]-6-methoxypyridin-3-yl}-3,5-dimethylbenzoic acid] | 10 nM
2 | COc1ncc(-c2c(C)cc(-c3n[nH]c(=O)o3)cc2C)cc1-c1cnc(N2CCOCC2)nc1CN1C(=O)O[C@H](c2cc(C(F)(F)F)cc(C(F)(F)F)c2)[C@@H]1C [Example 35, 5-(4-{5-[4-({(4S,5R)-5-[3,5-Bis(trifluoromethyl)phenyl]-4-methyl-2-oxo-1,3-oxazolidin-3-yl}methyl)-2-(morpholin-4-yl)pyrimidin-5-yl]-6-methoxypyridin-3-yl}-3,5-dimethylphenyl)-1,3,4-oxadiazol-2(3H)-one] | 10 nM
3 | COc1ncc(-c2ccc(C(=O)O)cc2C)cc1-c1cnc(N2CC(F)C2)nc1CN1C(=O)O[C@H](c2cc(C(F)(F)F)cc(C(F)(F)F)c2)[C@@H]1C [Example 36, 4-{5-[4-({(4S,5R)-5-[3,5-Bis(trifluoromethyl)phenyl]-4-methyl-2-oxo-1,3-oxazolidin-3-yl}methyl)-2-(3-fluoroazetidin-1-yl)pyrimidin-5-yl]-6-methoxypyridin-3-yl}-3-methylbenzoic acid] | 12 nM
4 | COc1ncc(-c2ccc(C(=O)Nc3nnn[nH]3)cc2C)cc1-c1cnc(N2CC(F)C2)nc1CN1C(=O)O[C@H](c2cc(C(F)(F)F)cc(C(F)(F)F)c2)[C@@H]1C [Example 37, 4-{5-[4-({(4S,5R)-5-[3,5-Bis(trifluoromethyl)phenyl]-4-methyl-2-oxo-1,3-oxazolidin-3-yl}methyl)-2-(3-fluoroazetidin-1-yl)pyrimidin-5-yl]-6-methoxypyridin-3-yl}-3-methyl-N-(1H-tetrazol-5-yl)benzamide] | 10 nM
5 | COc1ncc(-c2ccc(-c3n[nH]c(=O)o3)cc2C)cc1-c1cnc(N2CC(F)C2)nc1CN1C(=O)O[C@H](c2cc(C(F)(F)F)cc(C(F)(F)F)c2)[C@@H]1C [Example 38, 5-(4-{5-[4-({(4S,5R)-5-[3,5-Bis(trifluoromethyl)phenyl]-4-methyl-2-oxo-1,3-oxazolidin-3-yl}methyl)-2-(3-fluoroazetidin-1-yl)pyrimidin-5-yl]-6-methoxypyridin-3-yl}-3-methylphenyl)-1,3,4-oxadiazol-2(3H)-one] | 12 nM
6 | COc1ncc(-c2ccc(C(=O)O)cc2C)cc1-c1cnc(N2CCOCC2)nc1CN1C(=O)O[C@H](c2cc(C(F)(F)F)cc(C(F)(F)F)c2)[C@@H]1C [Example 39, 4-{5-[4-({(4S,5R)-5-[3,5-Bis(trifluoromethyl)phenyl]-4-methyl-2-oxo-1,3-oxazolidin-3-yl}methyl)-2-(morpholin-4-yl)pyrimidin-5-yl]-6-methoxypyridin-3-yl}-3-methylbenzoic acid] | 13 nM
7 | COc1ncc(-c2ccc(-c3n[nH]c(=O)o3)cc2C)cc1-c1cnc(N2CCOCC2)nc1CN1C(=O)O[C@H](c2cc(C(F)(F)F)cc(C(F)(F)F)c2)[C@@H]1C [Example 40, 5-(4-{5-[4-({(4S,5R)-5-[3,5-Bis(trifluoromethyl)phenyl]-4-methyl-2-oxo-1,3-oxazolidin-3-yl}methyl)-2-(morpholin-4-yl)pyrimidin-5-yl]-6-methoxypyridin-3-yl}-3-methylphenyl)-1,3,4-oxadiazol-2(3H)-one] | 29 nM
8 | COc1ncc(-c2ccc(C(=O)Nc3nnn[nH]3)cc2C)cc1-c1cnc(N2CCOCC2)nc1CN1C(=O)O[C@H](c2cc(C(F)(F)F)cc(C(F)(F)F)c2)[C@@H]1C [Example 41, 4-{5-[4-({(4S,5R)-5-[3,5-Bis(trifluoromethyl)phenyl]-4-methyl-2-oxo-1,3-oxazolidin-3-yl}methyl)-2-(morpholin-4-yl)pyrimidin-5-yl]-6-methoxypyridin-3-yl}-3-methyl-N-(1H-tetrazol-5-yl)benzamide] | 11 nM
